# Results reported in PubChem BioAssay AID264 (DTP/NCI, 2004).
# Several values for one entry are separate records, joined by “and”; a condition that tells them apart may be missing. Identical values can stand only once. Results filed as inconclusive are left out.
# Tested on: nude mice, LX-1 lung xenograft intrarenal, tumor weight T/C
# Assay: NCI In Vivo Anticancer Drug Screen. Data for tumor model Human Lung LX-1 Xenograft (intrarenal inoculation) in NU/NU Swiss (nude) mice
# Conditions: endpoint: mean tumor weight change, higher = larger tumour
# In short: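 Readout: T/C, i.e. treated-group tumor measurement over vehicle-control measurement. Mice bearing transplantable tumors were dosed with compound or vehicle.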
# [1] = dose: 12.5 mg/kg/injection, schedule: Q01DX010 (sc), vehicle: Klucel (hydroxypropylcellulose) (HPC)
# [2] = dose: 25.0 mg/kg/injection, schedule: Q01DX010 (sc), vehicle: Klucel (hydroxypropylcellulose) (HPC)
# [3] = dose: 37.5 mg/kg/injection, schedule: Q04DX003 (sc), vehicle: Klucel (hydroxypropylcellulose) (HPC)
# [4] = dose: 300.0 mg/kg/injection, schedule: Q04DX003 (sc), vehicle: Klucel (hydroxypropylcellulose) (HPC)
# [5] = dose: 50.0 mg/kg/injection, schedule: Q01DX010 (sc), vehicle: saline with Tween-80
# [6] = dose: 100.0 mg/kg/injection, schedule: Q01DX010 (sc), vehicle: saline with Tween-80
# [7] = dose: 300.0 mg/kg/injection, schedule: Q04DX003 (sc), vehicle: water
# [8] = dose: 600.0 mg/kg/injection, schedule: Q04DX003 (sc), vehicle: water
# [9] = dose: 1200.0 mg/kg/injection, schedule: Q04DX003 (sc), vehicle: water
# [10] = dose: 2400.0 mg/kg/injection, schedule: Q04DX003 (sc), vehicle: water
# [11] = dose: 100.0 mg/kg/injection, schedule: Q04DX003 (sc), vehicle: saline with Tween-80
# [12] = dose: 200.0 mg/kg/injection, schedule: Q04DX003 (sc), vehicle: saline with Tween-80
# [13] = dose: 400.0 mg/kg/injection, schedule: Q04DX003 (sc), vehicle: saline with Tween-80
# [14] = dose: 300.0 mg/kg/injection, schedule: Q04DX003 (sc), vehicle: saline with Tween-80
# [15] = dose: 600.0 mg/kg/injection, schedule: Q04DX003 (sc), vehicle: saline with Tween-80
# [16] = dose: 1200.0 mg/kg/injection, schedule: Q04DX003 (sc), vehicle: saline with Tween-80
structure (smiles),measurement,setting,value
c1cc[c]([Sn][c]2ccccc2)cc1,T/C,"dose: 10.0 mg/kg/injection, schedule: Q01DX010 (sc), vehicle: saline",78 % of control
same,T/C,"dose: 20.0 mg/kg/injection, schedule: Q01DX010 (sc), vehicle: saline",54 % of control
same,T/C,"dose: 40.0 mg/kg/injection, schedule: Q01DX010 (sc), vehicle: saline",81 % of control
COc1ccc(C(N)=O)cc1N=NN(C)C,T/C,[1],9 % of control
same,T/C,[2],6 % of control and 15 % of control
same,T/C,[3],23 % of control
same,T/C,"dose: 50.0 mg/kg/injection, schedule: Q01DX010 (sc), vehicle: Klucel (hydroxypropylcellulose) (HPC)",-25 % of control
same,T/C,"dose: 75.0 mg/kg/injection, schedule: Q04DX003 (sc), vehicle: Klucel (hydroxypropylcellulose) (HPC)",13 % of control
same,T/C,"dose: 150.0 mg/kg/injection, schedule: Q04DX003 (sc), vehicle: Klucel (hydroxypropylcellulose) (HPC)",8 % of control
same,T/C,[4],8 % of control
Oc1ccc(SCc2ccc(NCc3ccccc3)cc2)cc1,T/C,"dose: 25.0 mg/kg/injection, schedule: Q01DX010 (sc), vehicle: saline with Tween-80",97 % of control
same,T/C,[5],44 % of control
same,T/C,[6],53 % of control
same,T/C,"dose: 400.0 mg/kg/injection, schedule: Q01DX010 (sc), vehicle: saline with Tween-80",190 % of control
same,T/C,"dose: 800.0 mg/kg/injection, schedule: Q01DX010 (sc), vehicle: saline with Tween-80",54 % of control
CCCCCCCCCCCC(=O)NC1CC(O[C@H]2C[C@](O)(C(=O)CO)Cc3c(O)c4c(c(O)c32)C(=O)c2c(OC)cccc2C4=O)OC(C)C1O (stereo partly specified),T/C,[7],5 % of control
same,T/C,[8],76 % of control
same,T/C,[9],55 % of control
same,T/C,[10],118 % of control
CC[N+](CC)(CC)CC,T/C,"dose: 1.5 mg/kg/injection, schedule: Q01DX010 (sc), vehicle: saline with Tween-80",88 % of control
same,T/C,"dose: 12.0 mg/kg/injection, schedule: Q01DX010 (sc), vehicle: saline with Tween-80",25 % of control and 49 % of control
CC[C@@]1(O)C[C@H](OC2CC(N(C)C)C(OC3CC(O)C(OC4CCC(=O)C(C)O4)C(C)O3)C(C)O2)c2c(cc3c(c2O)C(=O)c2c(O)cccc2C3=O)[C@H]1C(=O)OC (stereo partly specified),T/C,"dose: 0.5 mg/kg/injection, schedule: Q01DX010 (sc), vehicle: water",105 % of control
same,T/C,"dose: 1.0 mg/kg/injection, schedule: Q01DX010 (sc), vehicle: water",69 % of control
same,T/C,"dose: 1.66 mg/kg/injection, schedule: Q04DX003 (ip), vehicle: water",24 % of control
same,T/C,"dose: 2.0 mg/kg/injection, schedule: Q01DX010 (sc), vehicle: water",83 % of control
same,T/C,"dose: 3.33 mg/kg/injection, schedule: Q04DX003 (ip), vehicle: water",22 % of control
CCCCCCCC(=O)N/N=C(\CO)[C@]1(O)Cc2c(O)c3c(c(O)c2[C@@H](OC2CC(N)C(O)C(C)O2)C1)C(=O)c1c(OC)cccc1C3=O (stereo partly specified),T/C,"dose: 12.5 mg/kg/injection, schedule: Q01DX010 (sc), vehicle: water",40 % of control
same,T/C,"dose: 25.0 mg/kg/injection, schedule: Q01DX010 (sc), vehicle: water",63 % of control
same,T/C,"dose: 50.0 mg/kg/injection, schedule: Q01DX010 (sc), vehicle: water",24 % of control
[Cl][Pt+2][Cl].[NH-]CC1(C[NH-])CCC1,T/C,"dose: 50.0 mg/kg/injection, schedule: Q04DX003 (sc), vehicle: suspension in saline",121 % of control
Nc1nc(-c2cccc3ccccc23)cc2ccccc12,T/C,[11],107 % of control
same,T/C,[12],91 % of control
same,T/C,[13],94 % of control
same,T/C,"dose: 800.0 mg/kg/injection, schedule: Q04DX003 (sc), vehicle: saline with Tween-80",53 % of control
CCOC(=O)C1(c2ccccc2)C(=O)Oc2ccccc21 (stereo unspecified),T/C,[14],54 % of control
same,T/C,[15],103 % of control
same,T/C,[16],73 % of control
same,T/C,"dose: 2400.0 mg/kg/injection, schedule: Q04DX003 (sc), vehicle: saline with Tween-80",74 % of control
Cc1c(N)nc([C@H](CC(N)=O)NC[C@H](N)C(N)=O)nc1C(=O)N[C@H](C(=O)N[C@H](C)[C@@H](O)[C@H](C)C(=O)N[C@H](C(=O)NCCc1nc(-c2nc(C(=O)NCCC[S+](C)C)cs2)cs1)[C@@H](C)O)C(OC1OC(CO)C(O)C(O)C1OC1OC(CO)C(O)C(OC(N)=O)C1O)c1cnc[nH]1 (stereo partly specified),T/C,"dose: 2.0 mg/kg/injection, schedule: Q01DX010 (sc), vehicle: saline",14 % of control
same,T/C,"dose: 4.0 mg/kg/injection, schedule: Q01DX010 (sc), vehicle: saline",71 % of control
same,T/C,"dose: 16.0 mg/kg/injection, schedule: Q04DX003 (sc), vehicle: saline",49 % of control
same,T/C,"dose: 32.0 mg/kg/injection, schedule: Q04DX003 (sc), vehicle: saline",47 % of control
Nc1cc2[nH]cnc2c(=O)[nH]1,T/C,"dose: 25.0 mg/kg/injection, schedule: Q01DX010 (sc), vehicle: saline",25 % of control
same,T/C,"dose: 200.0 mg/kg/injection, schedule: Q01DX010 (sc), vehicle: saline",16 % of control and 18 % of control
BrC1CC(Br)c2c1c1c(c3c2C(Br)CC3Br)C(Br)CC1Br (stereo unspecified),T/C,[7],46 % of control
same,T/C,[8],43 % of control
same,T/C,[9],29 % of control
same,T/C,[10],29 % of control
C[C@]12C=CC(=O)C=C1CC[C@@H]1[C@@H]2C(=O)C[C@@]2(C)[C@H]1CC[C@]2(O)C(=O)CO,T/C,[4],50 % of control
same,T/C,"dose: 600.0 mg/kg/injection, schedule: Q04DX003 (sc), vehicle: Klucel (hydroxypropylcellulose) (HPC)",56 % of control
same,T/C,"dose: 1200.0 mg/kg/injection, schedule: Q04DX003 (sc), vehicle: Klucel (hydroxypropylcellulose) (HPC)",47 % of control
same,T/C,"dose: 2400.0 mg/kg/injection, schedule: Q04DX003 (sc), vehicle: Klucel (hydroxypropylcellulose) (HPC)",35 % of control
BrCC[Se]c1ccccc1,T/C,[5],92 % of control
same,T/C,[6],62 % of control
same,T/C,"dose: 200.0 mg/kg/injection, schedule: Q01DX010 (sc), vehicle: saline with Tween-80",55 % of control
O=C(NO)c1ccc(O)c(O)c1,T/C,"dose: 200.0 mg/kg/injection, schedule: Q04DX003 (sc), vehicle: distilled water + Tween-80",103 % of control
same,T/C,"dose: 400.0 mg/kg/injection, schedule: Q04DX003 (sc), vehicle: distilled water + Tween-80",74 % of control
same,T/C,"dose: 800.0 mg/kg/injection, schedule: Q04DX003 (sc), vehicle: distilled water + Tween-80",78 % of control
CCCCCCCCCCCCCCCC(=O)OCC1OC(n2ccc(N)nc2=O)C(O)C1O (stereo unspecified),T/C,"dose: 18.75 mg/kg/injection, schedule: Q04DX003 (sc), vehicle: saline with Tween-80",55 % of control
same,T/C,"dose: 37.5 mg/kg/injection, schedule: Q04DX003 (sc), vehicle: saline with Tween-80",43 % of control and 60 % of control
same,T/C,[12],70 % of control
CCC[CH2][Hg][Cl],T/C,"dose: 18.75 mg/kg/injection, schedule: Q04DX003 (sc), vehicle: Klucel (hydroxypropylcellulose) (HPC)",69 % of control
same,T/C,[3],53 % of control
[N-]=[N+]=CC(=O)CCC(N)C(=O)O (stereo unspecified),T/C,"dose: 0.05 mg/kg/injection, schedule: Q01DX010 (sc), vehicle: saline",91 % of control
same,T/C,"dose: 0.37 mg/kg/injection, schedule: Q01DX010 (sc), vehicle: saline",12 % of control
same,T/C,"dose: 0.75 mg/kg/injection, schedule: Q01DX010 (sc), vehicle: saline",-28 % of control
O=[N+]([O-])c1ccc(Sc2ccncn2)c([N+](=O)[O-])c1,T/C,[14],104 % of control
same,T/C,[15],105 % of control
same,T/C,[16],98 % of control
CN(C)CC(Cl)CCl (stereo unspecified),T/C,"dose: 300.0 mg/kg/injection, schedule: Q04DX003 (sc), vehicle: saline",49 % of control
C=CCNc1ccc(C)cc1,T/C,[1],98 % of control
same,T/C,[2],171 % of control
same,T/C,"dose: 100.0 mg/kg/injection, schedule: Q01DX010 (sc), vehicle: Klucel (hydroxypropylcellulose) (HPC)",107 % of control
same,T/C,"dose: 200.0 mg/kg/injection, schedule: Q01DX010 (sc), vehicle: Klucel (hydroxypropylcellulose) (HPC)",42 % of control
same,T/C,"dose: 400.0 mg/kg/injection, schedule: Q01DX010 (sc), vehicle: Klucel (hydroxypropylcellulose) (HPC)",72 % of control
C[C@@H](CN1CC(=O)NC(=O)C1)N1CC(=O)NC(=O)C1,T/C,[5],91 % of control
same,T/C,[6],34 % of control
NC(=S)N/N=C/c1ccc(O)cn1,T/C,"dose: 50.0 mg/kg/injection, schedule: Q04DX003 (sc), vehicle: saline with Tween-80",102 % of control
same,T/C,[11],94 % of control
same,T/C,[12],96 % of control
same,T/C,[13],64 % of control
